From paper PMC11555678, “Improved Broad Spectrum Antifungal Drug Synergies with Cryptomycin, a Cdc50-Inspired Antifungal Peptide” (ACS Infectious Diseases, 2024)
Values after ≈ are worked out from the molar mass of the structure shown. Where two headings read alike, the source gives them in different places.

Tests used:
[1] = test system: C. neoformans Crm1^OE; assay: microbe, parasite or virus in culture; format: cell-based, Cryptococcus neoformans; details: Cryptococcus neoformans, 48 h
Summary of the method: (§1)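 Testing follows the CLSI M27 protocol for yeasts: test compounds are diluted 2-fold serially in RPMI1640, and washed overnight cells are added at 5000 cfu/mL before 2 days' incubation at 37 °C.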

[2] = test system: C. neoformans apt1Δ; assay: microbe, parasite or virus in culture; format: cell-based, Cryptococcus neoformans; details: Cryptococcus neoformans, 48 h
Summary of the method: as §1

[3] = test system: C. neoformans apt3Δ; assay: microbe, parasite or virus in culture; format: cell-based, Cryptococcus neoformans; details: Cryptococcus neoformans, 48 h
Summary of the method: as §1

[4] = test system: C. neoformans apt4Δ; assay: microbe, parasite or virus in culture; format: cell-based, Cryptococcus neoformans; details: Cryptococcus neoformans, 48 h
Summary of the method: as §1

[5] = test system: C. neoformans cdc50Δ; assay: microbe, parasite or virus in culture; format: cell-based, Cryptococcus neoformans; details: Cryptococcus neoformans, 48 h
Summary of the method: as §1

[6] = test system: A. fumigatus AF293; assay: microbe, parasite or virus in culture; format: cell-based, Aspergillus fumigatus
[7] = test system: C. glabrata 2001; format: cell-based, Candida glabrata; details: RPMI1640, 37 °C, 48 h
Procedure: (§2) All microdilution assays with fungi were carried out in accordance with CLSI protocols from M27 for yeasts and M38 for filamentous fungi, respectively, unless otherwise specified.[64],[65] Briefly, 96-well plates were charged with RPMI1640 media, with operating volume in the first column, 200 μL, and half operating volume, 100 μL, in the remaining wells. Drug stock solution in DMSO was aliquoted into the first well in each row. Half of the volume in the dosed well was serially diluted 2-fold until column 11. Column 11 was used as the negative growth control, and column 12 was used as the positive growth control. ON yeast cultures in YPD were washed twice in DD-H2O, resuspended in PBS, and adjusted to 5000 cfu/mL in RPMI. The 96-well plate was inoculated with 100 μL aliquots of cell suspension per well. Plates were incubated at 37 °C for 2 days.
(§3) To assess drug synergy, the initial media charged to the plate contained the peptide at twice the final operating concentration; the remaining processing steps were identical to the MIC experiment. Upon addition of 100 μL of inoculant, the final operating concentration was achieved. Control MIC plates were prepared alongside drug synergy plates to account for the day-to-day variability in any individual MIC. FIC index is computed using eq 1. All MIC assays and drug synergy assays were completed with two technical replicates per 96-well plate and a minimum of two biological replicates per drug combination. If a difference in MIC between the two technical replicates on the plate were observed, only the higher concentration was reported as the MIC to reduce the possibility of type 1 error (false positive) [drawing 1] 1

[8] = test system: Cg FKS1 S629P; assay: Drug synergy (MIC in peptide-supplemented media); format: cell-based, Candida glabrata; details: RPMI1640, 37 °C, 48 h
Procedure: as §2, §3

[9] = test system: Cg FKS2 S663P; assay: Drug synergy (MIC in peptide-supplemented media); format: cell-based, Candida glabrata; details: RPMI1640, 37 °C, 48 h
Procedure: as §2, §3

[10] = test system: C. albicans SC5413; format: cell-based, Candida albicans; details: RPMI1640, 37 °C, 48 h; for MIC of antifungal in combination with KKOO: azole MICs unclear (intermediate phenotype); for MIC of antifungal in combination with KKOO-NH2: azole MICs could not be determined (intermediate phenotype)
Procedure: as §2, §3

[11] = test system: C. auris B11245; format: cell-based, Candida auris; details: RPMI1640, 37 °C, 48 h; for MIC of antifungal in combination with KKOO-NH2: MIC = well with <20% growth
Procedure: as §2, §3

[12] = test system: A. fumigatus AF293; assay: Drug synergy (MIC in peptide-supplemented media); format: cell-based, Aspergillus fumigatus; details: RPMI1640, 37 °C, 48 h; for MIC of antifungal in combination with KKOO-NH2: MIC = well with <20% growth
Procedure: as §2, §3

[13] = test system: Cn Crm1-oe; assay: microbe, parasite or virus in culture; format: cell-based, Cryptococcus neoformans; details: Cryptococcus neoformans, CRM1OE, 48 h, 37 °C
Procedure: (§4) Previous studies have shown that modifying microbiological media with salts such as CaCl2 can have a drastic effect on the growth of fungi and their responses to antifungals.[19],[35] In the case of CaCl2, the divalent cation, Ca^2+, is involved in fungal cell stress response. To understand how the peptide activity may involve calcium and stress response, the MICs of KKOO, KKOO-NH2, FLC, and CAS were assessed as a function of the calcium concentration in liquid YPD media. It was observed that calcium enrichment completely desensitized the wild-type strain to KKOO and KKOO-NH2, Tables 7 and 8, respectively. Effects of calcium enrichment on the susceptibility of Cryptococcus to CAS similar to literature values were recorded, Supporting Information, Table S7.[35]
as §2

[14] = test system: Cn apt1Δ; assay: microbe, parasite or virus in culture; format: cell-based, Cryptococcus neoformans; details: Cryptococcus neoformans, 48 h, 37 °C, 48 h
Procedure: as §4, §2

[15] = test system: Cn crm1Δ; assay: microbe, parasite or virus in culture; format: cell-based, Cryptococcus neoformans; details: Cryptococcus neoformans, 48 h, 37 °C
Procedure: as §4, §2

[16] = +0 μg/mL KKOO (control), CAS: paradoxical growth, MIC = <20% growth
[17] = +0 μg/mL KKOO-NH2 (control), CAS: paradoxical growth
[18] = +1 μg/mL KKOO-NH2, CAS: paradoxical growth
[19] = +1 μg/mL KKOO, CAS: paradoxical growth, MIC = <20% growth
[20] = +2 μg/mL KKOO-NH2, CAS: paradoxical growth
[21] = +2 μg/mL KKOO, CAS: paradoxical growth, MIC = <20% growth
[22] = +4 μg/mL KKOO-NH2, CAS: paradoxical growth
[23] = +4 μg/mL KKOO, CAS: paradoxical growth, MIC = <20% growth

## OC(Cn1cncn1)(Cn1cncn1)c1ccc(F)cc1F [FLC, fluconazole]
[1]
  MIC: 0.25 µg/mL (≈ 0.816 µM)
[2]
  MIC: 0.5 µg/mL (≈ 1.63 µM)
[3]
  MIC: 2 µg/mL (≈ 6.53 µM)
[4]
  MIC: 2 µg/mL (≈ 6.53 µM)
[5]
  MIC: 0.125 µg/mL (≈ 0.408 µM)
[6]; Aspergillus fumigatus, AF293, 48 h
  MIC: > 128 µg/mL
[6]; compound alone, RPMI1640, 37 °C, 48 h, * = paradoxical growth observed (CAS)
  MIC: >128 µg/mL
[7]; +0 μg/mL KKOO (control)
  MIC of antifungal in combination with KKOO: 8 µg/mL
[7]; +0 μg/mL KKOO-NH2 (control)
  MIC of antifungal in combination with KKOO-NH2: 8 µg/mL
[7]; +1 μg/mL KKOO-NH2
  MIC of antifungal in combination with KKOO-NH2: 8 µg/mL
[7]; +1 μg/mL KKOO
  MIC of antifungal in combination with KKOO: 8 µg/mL
[7]; +2 μg/mL KKOO-NH2
  MIC of antifungal in combination with KKOO-NH2: 8 µg/mL
[7]; +2 μg/mL KKOO
  MIC of antifungal in combination with KKOO: 8 µg/mL
[7]; +4 μg/mL KKOO-NH2
  MIC of antifungal in combination with KKOO-NH2: 8 µg/mL
[7]; +4 μg/mL KKOO
  MIC of antifungal in combination with KKOO: 4 µg/mL
[7]; +8 μg/mL KKOO
  MIC of antifungal in combination with KKOO: 4 µg/mL
[8]; +0 μg/mL KKOO (control)
  MIC of antifungal in combination with KKOO: 2 µg/mL
[8]; +0 μg/mL KKOO-NH2 (control)
  MIC of antifungal in combination with KKOO-NH2: 2 µg/mL
[8]; +1 μg/mL KKOO-NH2
  MIC of antifungal in combination with KKOO-NH2: 2 µg/mL
[8]; +1 μg/mL KKOO
  MIC of antifungal in combination with KKOO: 2 µg/mL
[8]; +2 μg/mL KKOO-NH2
  MIC of antifungal in combination with KKOO-NH2: 2 µg/mL
[8]; +2 μg/mL KKOO
  MIC of antifungal in combination with KKOO: 2 µg/mL
[8]; +4 μg/mL KKOO-NH2
  MIC of antifungal in combination with KKOO-NH2: 1 µg/mL
[8]; +4 μg/mL KKOO
  MIC of antifungal in combination with KKOO: 2 µg/mL
[9]; +0 μg/mL KKOO (control)
  MIC of antifungal in combination with KKOO: 0.5 µg/mL
[9]; +0 μg/mL KKOO-NH2 (control)
  MIC of antifungal in combination with KKOO-NH2: 0.5 µg/mL
[9]; +1 μg/mL KKOO-NH2
  MIC of antifungal in combination with KKOO-NH2: 0.5 µg/mL
[9]; +1 μg/mL KKOO
  MIC of antifungal in combination with KKOO: 0.5 µg/mL
[9]; +2 μg/mL KKOO-NH2
  MIC of antifungal in combination with KKOO-NH2: 0.5 µg/mL
[9]; +2 μg/mL KKOO
  MIC of antifungal in combination with KKOO: 0.5 µg/mL
[9]; +4 μg/mL KKOO-NH2
  MIC of antifungal in combination with KKOO-NH2: 0.5 µg/mL
[9]; +4 μg/mL KKOO
  MIC of antifungal in combination with KKOO: 0.5 µg/mL
[10]; +0 μg/mL KKOO (control)
  MIC of antifungal in combination with KKOO: > 16 µg/mL
[10]; +0 μg/mL KKOO-NH2 (control)
  MIC of antifungal in combination with KKOO-NH2: >16 µg/mL
[10]; +1 μg/mL KKOO-NH2
  MIC of antifungal in combination with KKOO-NH2: >16 µg/mL
[10]; +1 μg/mL KKOO
  MIC of antifungal in combination with KKOO: > 16 µg/mL
[10]; +2 μg/mL KKOO-NH2
  MIC of antifungal in combination with KKOO-NH2: >16 µg/mL
[10]; +2 μg/mL KKOO
  MIC of antifungal in combination with KKOO: > 16 µg/mL
[10]; +4 μg/mL KKOO-NH2
  MIC of antifungal in combination with KKOO-NH2: >16 µg/mL
[10]; +4 μg/mL KKOO
  MIC of antifungal in combination with KKOO: > 16 µg/mL
[10]; +8 μg/mL KKOO
  MIC of antifungal in combination with KKOO: 0.125 µg/mL
[11]; [16]
  MIC of antifungal in combination with KKOO: > 128 µg/mL
[11]; [17]
  MIC of antifungal in combination with KKOO-NH2: >128 µg/mL
[11]; [18]
  MIC of antifungal in combination with KKOO-NH2: >128 µg/mL
[11]; [19]
  MIC of antifungal in combination with KKOO: > 128 µg/mL
[11]; [20]
  MIC of antifungal in combination with KKOO-NH2: >128 µg/mL
[11]; [21]
  MIC of antifungal in combination with KKOO: > 128 µg/mL
[11]; [22]
  MIC of antifungal in combination with KKOO-NH2: >128 µg/mL
[11]; [23]
  MIC of antifungal in combination with KKOO: > 128 µg/mL
[11]; +8 μg/mL KKOO
  MIC of antifungal in combination with KKOO: > 128 µg/mL
[12]; [16]
  MIC of antifungal in combination with KKOO: > 128 µg/mL
[12]; [17]
  MIC of antifungal in combination with KKOO-NH2: >128 µg/mL
[12]; [18]
  MIC of antifungal in combination with KKOO-NH2: >128 µg/mL
[12]; [19]
  MIC of antifungal in combination with KKOO: > 128 µg/mL
[12]; [20]
  MIC of antifungal in combination with KKOO-NH2: >128 µg/mL
[12]; [21]
  MIC of antifungal in combination with KKOO: > 128 µg/mL
[12]; [22]
  MIC of antifungal in combination with KKOO-NH2: >128 µg/mL
[12]; [23]
  MIC of antifungal in combination with KKOO: > 128 µg/mL
[12]; +8 μg/mL KKOO-NH2, CAS: paradoxical growth
  MIC of antifungal in combination with KKOO-NH2: >128 µg/mL
[12]; +8 μg/mL KKOO
  MIC of antifungal in combination with KKOO: > 128 µg/mL
[13]; YPD + 0 mM Ca2+
  MIC: 1 µg/mL
[13]; YPD + 2.5 mM Ca2+
  MIC: 2 µg/mL
[13]; YPD + 5 mM Ca2+
  MIC: 2 µg/mL
[13]; YPD + 10 mM Ca2+
  MIC: 2 µg/mL
[13]; YPD + 20 mM Ca2+
  MIC: 2 µg/mL
[14]; YPD + 0 mM Ca2+
  MIC: 0.25 µg/mL
[14]; YPD + 2.5 mM Ca2+
  MIC: 0.5 µg/mL
[14]; YPD + 5 mM Ca2+
  MIC: 1 µg/mL
[14]; YPD + 10 mM Ca2+
  MIC: 0.5 µg/mL
[14]; YPD + 20 mM Ca2+
  MIC: 0.5 µg/mL
[15]; YPD + 0 mM Ca2+
  MIC: 4 µg/mL
[15]; YPD + 2.5 mM Ca2+
  MIC: 4 µg/mL
[15]; YPD + 5 mM Ca2+
  MIC: 4 µg/mL
[15]; YPD + 10 mM Ca2+
  MIC: 8 µg/mL
[15]; YPD + 20 mM Ca2+
  MIC: 8 µg/mL
